Experimental data: ChEMBL document CHEMBL4041516, “SAR study of 5-alkynyl substituted quinazolin-4(3H)-ones as phosphoinositide 3-kinase delta (PI3Kδ) inhibitors” (Eur J Med Chem, 2017)
Activity calls are given as the source filed them. No cut-off for these calls is given here.

How the values were obtained:
[1] = test system: U-937; assay: Inhibition of phorbol 12-myristate 13-acetate-induced peroxide production in human U937 cells; assay type: functional, cell-based
[2] = molecular target: T1, Phosphatidylinositol 4,5-bisphosphate 3-kinase catalytic subunit delta isoform (Homo sapiens, UniProt O00329); assay: Inhibition of PI3Kdelta (unknown origin) using biotinylated PIP2 as substrate after 2 hrs by TR-FRET assay
T1 sequence (O00329 whole entry): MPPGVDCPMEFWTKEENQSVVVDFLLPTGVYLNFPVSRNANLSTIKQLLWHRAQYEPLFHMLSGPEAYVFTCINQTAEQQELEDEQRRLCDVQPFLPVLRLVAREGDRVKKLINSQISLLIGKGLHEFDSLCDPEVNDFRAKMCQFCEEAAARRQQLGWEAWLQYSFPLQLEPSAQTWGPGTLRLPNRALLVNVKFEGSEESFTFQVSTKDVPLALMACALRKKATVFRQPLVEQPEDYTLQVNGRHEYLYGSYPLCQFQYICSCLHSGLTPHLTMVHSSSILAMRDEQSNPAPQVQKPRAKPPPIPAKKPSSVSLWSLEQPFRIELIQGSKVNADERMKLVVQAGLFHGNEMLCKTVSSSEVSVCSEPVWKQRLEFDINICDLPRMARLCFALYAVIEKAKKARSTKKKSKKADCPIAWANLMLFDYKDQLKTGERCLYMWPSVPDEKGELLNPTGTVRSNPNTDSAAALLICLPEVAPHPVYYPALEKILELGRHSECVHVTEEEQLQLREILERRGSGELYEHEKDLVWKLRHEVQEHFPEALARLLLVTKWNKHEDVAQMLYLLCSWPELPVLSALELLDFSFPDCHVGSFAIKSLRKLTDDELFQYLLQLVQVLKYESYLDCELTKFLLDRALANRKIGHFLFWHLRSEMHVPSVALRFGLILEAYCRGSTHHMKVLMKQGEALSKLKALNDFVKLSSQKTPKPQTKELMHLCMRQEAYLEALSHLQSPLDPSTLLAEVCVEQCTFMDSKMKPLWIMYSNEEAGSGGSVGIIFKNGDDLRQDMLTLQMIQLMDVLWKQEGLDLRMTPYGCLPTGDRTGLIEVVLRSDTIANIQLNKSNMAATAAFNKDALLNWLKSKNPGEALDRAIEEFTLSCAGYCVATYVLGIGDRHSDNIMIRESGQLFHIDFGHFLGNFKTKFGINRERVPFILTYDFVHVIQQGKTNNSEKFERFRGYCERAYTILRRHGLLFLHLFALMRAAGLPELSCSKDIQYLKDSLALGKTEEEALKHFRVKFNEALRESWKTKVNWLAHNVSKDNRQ

[3] = molecular target: T2, Phosphatidylinositol 4,5-bisphosphate 3-kinase catalytic subunit gamma isoform (Homo sapiens, UniProt P48736); assay: Inhibition of PI3Kgamma (unknown origin) using biotinylated PIP2 as substrate after 2 hrs by TR-FRET assay
[4] = molecular target: T3, Phosphatidylinositol 4,5-bisphosphate 3-kinase catalytic subunit alpha isoform (Homo sapiens, UniProt P42336); assay: Inhibition of PI3Kalpha (unknown origin) using biotinylated PIP2 as substrate after 2 hrs by TR-FRET assay
[5] = test system: SUD4; assay: Antiproliferative activity against human SU-DHL4 cells measured after 72 hrs by alamar blue assay; assay type: functional, cell-based; conditions: SU-DHL-4, 72 h
[6] = test system: MOLT-4; assay: Antiproliferative activity against human MOLT4 cells measured after 72 hrs by alamar blue assay; assay type: functional, cell-based; conditions: MOLT-4, 72 h
[7] = molecular target: Phosphatidylinositol 4,5-bisphosphate 3-kinase catalytic subunit beta isoform (Homo sapiens, UniProt P42338); assay: Inhibition of PI3Kbeta (unknown origin) using PIP2 as substrate measured after 30 mins by HTRF assay
[8] = test system: SU-DHL10; assay: Antiproliferative activity against human SU-DHL10 cells measured after 72 hrs by alamar blue assay; assay type: functional, cell-based; conditions: SU-DHL10, 72 h
[9] = molecular target: hERG (KCNH2) (Homo sapiens, UniProt Q12809); assay: Inhibition of human ERG at 40 uM relative to control
[10] = molecular target: T4, Phosphatidylinositol 4,5-bisphosphate 3-kinase catalytic subunit delta isoform (Homo sapiens) (UniProt O00329); assay: Inhibition of PI3Kdelta-mediated Akt phosphorylation at […] in human SUDHL6 cells measured after 1 hr by Western blot analysis; assay type: cell-based
T4 sequence (whole entry): T1 sequence (O00329 whole entry)

[11] = Half life in Sprague-Dawley rat at 5 mg/kg, iv; assay type: ADME, organism-based; conditions: in vivo
[12] = AUClast in Sprague-Dawley rat at 5 mg/kg, iv; assay type: ADME, organism-based; design: dose 5 mg/kg, time 0 - last, route intravenous; conditions: in vivo
[13] = test system: SU-DHL-1; assay: Antiproliferative activity against human SU-DHL1 cells measured after 72 hrs by alamar blue assay; assay type: functional, cell-based; conditions: SU-DHL-1, 72 h
[14] = molecular target: T3, Phosphatidylinositol 4,5-bisphosphate 3-kinase catalytic subunit alpha isoform; assay: Inhibition of PI3Kalpha (unknown origin) using PIP2 as substrate measured after 30 mins by HTRF assay
[15] = test system: KARPAS-422; assay: Antiproliferative activity against human KARPAS422 cells measured after 72 hrs by alamar blue assay; assay type: functional, cell-based; conditions: KARPAS-422, 72 h
[16] = test system: Rattus norvegicus; assay: AUC (infinity) in Sprague-Dawley rat at 5 mg/kg, iv; assay type: ADME, organism-based; design: dose 5 mg/kg, time infinity, route intravenous; conditions: in vivo
[17] = molecular target: T4, Phosphatidylinositol 4,5-bisphosphate 3-kinase catalytic subunit delta isoform (Homo sapiens); assay: Inhibition of PI3Kdelta-mediated Akt phosphorylation in human SUDHL6 cells at 3 nM measured after 1 hr by Western blot analysis; assay type: cell-based
[18] = AUC (infinity) in Sprague-Dawley rat at 10 mg/kg, po; assay type: ADME, organism-based; design: dose 10 mg/kg, route oral, time infinity; conditions: in vivo
[19] = test system: SU-DHL-6; assay: Antiproliferative activity against human SUDHL6 cells measured after 72 hrs by alamar blue assay; assay type: functional, cell-based; conditions: SU-DHL-6, 72 h
[20] = molecular target: T2, Phosphatidylinositol 4,5-bisphosphate 3-kinase catalytic subunit gamma isoform; assay: Inhibition of PI3Kgamma (unknown origin) using PIP2 as substrate measured after 30 mins by HTRF assay
[21] = Oral bioavailability in Sprague-Dawley rat at 10 mg/kg; assay type: ADME, organism-based; conditions: in vivo
[22] = AUClast in Sprague-Dawley rat at 10 mg/kg, po; assay type: ADME, organism-based; design: dose 10 mg/kg, time 0 - last, route oral; conditions: in vivo
[23] = Half life in Sprague-Dawley rat at 10 mg/kg, po; assay type: ADME, organism-based; conditions: in vivo
[24] = molecular target: T4, Phosphatidylinositol 4,5-bisphosphate 3-kinase catalytic subunit delta isoform (Homo sapiens); assay: Inhibition of PI3Kdelta-mediated Akt phosphorylation at […] in human MOLT4 cells measured after 1 hr by Western blot analysis; assay type: cell-based
[25] = molecular target: T4, Phosphatidylinositol 4,5-bisphosphate 3-kinase catalytic subunit delta isoform (Homo sapiens); assay: Inhibition of PI3Kdelta-mediated S6k1 phosphorylation at T389 in human MOLT4 cells measured after 1 hr by Western blot analysis; assay type: cell-based
[26] = Antiproliferative activity against human WSU-DLCL2 cells measured after 72 hrs by alamar blue assay; assay type: functional, cell-based; conditions: WSUDLCL2, 72 h
[27] = test system: NAMALVA; assay: Antiproliferative activity against human NAMALWA cells measured after 72 hrs by alamar blue assay; assay type: functional, cell-based
[28] = molecular target: T1, Phosphatidylinositol 4,5-bisphosphate 3-kinase catalytic subunit delta isoform; assay: Inhibition of PI3Kdelta (unknown origin) using PIP2 as substrate measured after 30 mins by HTRF assay
[29] = molecular target: Voltage-gated inwardly rectifying potassium channel KCNH2 (Homo sapiens, UniProt Q12809); assay: Inhibition of human ERG; conditions: read-out: IC50
[30] = test system: HT; assay: Antiproliferative activity against human HT cells measured after 72 hrs by alamar blue assay; assay type: functional, cell-based
[31] = Volume of distribution in Sprague-Dawley rat at 5 mg/kg, iv; assay type: ADME, organism-based; conditions: in vivo
[32] = molecular target: T4, Phosphatidylinositol 4,5-bisphosphate 3-kinase catalytic subunit delta isoform (Homo sapiens); assay: Inhibition of PI3Kdelta-mediated S6k1 phosphorylation at T389 in human SUDHL6 cells measured after 1 hr by Western blot analysis; assay type: cell-based
[33] = test system: Pfeiffer; assay: Antiproliferative activity against human Pfeiffer cells measured after 72 hrs by alamar blue assay; assay type: functional, cell-based

T3 sequence (P42336 whole entry, canonical isoform): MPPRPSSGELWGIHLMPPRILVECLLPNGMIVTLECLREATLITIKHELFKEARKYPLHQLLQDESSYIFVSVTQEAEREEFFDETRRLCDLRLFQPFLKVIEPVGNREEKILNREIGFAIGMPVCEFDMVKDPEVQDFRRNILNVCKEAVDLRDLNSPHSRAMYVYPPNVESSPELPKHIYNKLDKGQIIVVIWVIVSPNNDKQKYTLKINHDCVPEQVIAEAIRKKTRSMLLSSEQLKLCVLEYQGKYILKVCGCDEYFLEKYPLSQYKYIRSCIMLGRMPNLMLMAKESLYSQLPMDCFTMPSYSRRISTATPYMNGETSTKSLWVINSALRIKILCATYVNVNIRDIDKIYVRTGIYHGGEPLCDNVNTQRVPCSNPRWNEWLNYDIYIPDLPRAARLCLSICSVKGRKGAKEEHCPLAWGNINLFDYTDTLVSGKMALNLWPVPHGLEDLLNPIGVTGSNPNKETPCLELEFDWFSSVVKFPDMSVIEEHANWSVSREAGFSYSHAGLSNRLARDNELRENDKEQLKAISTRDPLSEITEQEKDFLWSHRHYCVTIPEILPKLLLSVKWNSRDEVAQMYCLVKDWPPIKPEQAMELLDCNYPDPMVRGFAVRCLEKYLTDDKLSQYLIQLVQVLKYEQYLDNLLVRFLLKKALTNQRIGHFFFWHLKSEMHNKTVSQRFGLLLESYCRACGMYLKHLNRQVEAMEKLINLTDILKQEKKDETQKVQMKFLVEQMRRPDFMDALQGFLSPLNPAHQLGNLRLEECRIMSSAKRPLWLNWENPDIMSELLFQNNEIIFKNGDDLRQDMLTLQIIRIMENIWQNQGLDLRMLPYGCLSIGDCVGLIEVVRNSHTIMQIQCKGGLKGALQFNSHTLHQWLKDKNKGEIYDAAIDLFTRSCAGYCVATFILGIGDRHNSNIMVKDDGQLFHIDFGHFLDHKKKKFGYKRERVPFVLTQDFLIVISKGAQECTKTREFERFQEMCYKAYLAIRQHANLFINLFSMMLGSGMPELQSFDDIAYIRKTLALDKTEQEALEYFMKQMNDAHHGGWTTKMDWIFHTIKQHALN
T2 sequence (P48736 whole entry, canonical isoform): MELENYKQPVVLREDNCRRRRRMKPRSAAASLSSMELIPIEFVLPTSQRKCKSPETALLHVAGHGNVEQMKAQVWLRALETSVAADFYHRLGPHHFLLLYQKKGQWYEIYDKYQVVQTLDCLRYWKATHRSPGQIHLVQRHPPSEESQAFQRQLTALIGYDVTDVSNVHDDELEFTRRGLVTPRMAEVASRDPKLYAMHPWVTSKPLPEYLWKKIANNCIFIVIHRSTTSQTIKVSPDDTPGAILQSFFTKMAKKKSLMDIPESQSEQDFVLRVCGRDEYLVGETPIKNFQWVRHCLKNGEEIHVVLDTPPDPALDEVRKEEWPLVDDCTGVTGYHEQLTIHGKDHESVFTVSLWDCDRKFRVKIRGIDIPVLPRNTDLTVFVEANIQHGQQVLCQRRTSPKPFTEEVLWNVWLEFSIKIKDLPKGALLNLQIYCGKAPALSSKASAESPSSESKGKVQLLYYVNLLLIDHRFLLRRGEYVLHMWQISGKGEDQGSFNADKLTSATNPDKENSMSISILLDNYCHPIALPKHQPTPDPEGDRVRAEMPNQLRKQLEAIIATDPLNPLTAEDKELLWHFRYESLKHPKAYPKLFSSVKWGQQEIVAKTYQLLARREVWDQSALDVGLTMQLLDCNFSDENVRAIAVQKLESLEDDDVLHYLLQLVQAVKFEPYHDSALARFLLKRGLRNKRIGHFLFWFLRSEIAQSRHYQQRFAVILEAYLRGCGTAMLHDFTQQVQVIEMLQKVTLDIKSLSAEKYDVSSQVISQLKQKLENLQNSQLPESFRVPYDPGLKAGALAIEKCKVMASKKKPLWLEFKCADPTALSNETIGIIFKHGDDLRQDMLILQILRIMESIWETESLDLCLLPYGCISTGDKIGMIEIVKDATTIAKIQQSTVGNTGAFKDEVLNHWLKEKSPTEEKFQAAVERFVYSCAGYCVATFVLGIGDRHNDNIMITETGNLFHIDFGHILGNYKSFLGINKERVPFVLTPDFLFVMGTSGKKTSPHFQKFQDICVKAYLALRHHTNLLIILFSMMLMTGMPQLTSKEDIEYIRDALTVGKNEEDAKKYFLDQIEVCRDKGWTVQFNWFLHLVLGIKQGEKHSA
Sequence of Phosphatidylinositol 4,5-bisphosphate 3-kinase catalytic subunit beta isoform (P42338 whole entry, canonical isoform): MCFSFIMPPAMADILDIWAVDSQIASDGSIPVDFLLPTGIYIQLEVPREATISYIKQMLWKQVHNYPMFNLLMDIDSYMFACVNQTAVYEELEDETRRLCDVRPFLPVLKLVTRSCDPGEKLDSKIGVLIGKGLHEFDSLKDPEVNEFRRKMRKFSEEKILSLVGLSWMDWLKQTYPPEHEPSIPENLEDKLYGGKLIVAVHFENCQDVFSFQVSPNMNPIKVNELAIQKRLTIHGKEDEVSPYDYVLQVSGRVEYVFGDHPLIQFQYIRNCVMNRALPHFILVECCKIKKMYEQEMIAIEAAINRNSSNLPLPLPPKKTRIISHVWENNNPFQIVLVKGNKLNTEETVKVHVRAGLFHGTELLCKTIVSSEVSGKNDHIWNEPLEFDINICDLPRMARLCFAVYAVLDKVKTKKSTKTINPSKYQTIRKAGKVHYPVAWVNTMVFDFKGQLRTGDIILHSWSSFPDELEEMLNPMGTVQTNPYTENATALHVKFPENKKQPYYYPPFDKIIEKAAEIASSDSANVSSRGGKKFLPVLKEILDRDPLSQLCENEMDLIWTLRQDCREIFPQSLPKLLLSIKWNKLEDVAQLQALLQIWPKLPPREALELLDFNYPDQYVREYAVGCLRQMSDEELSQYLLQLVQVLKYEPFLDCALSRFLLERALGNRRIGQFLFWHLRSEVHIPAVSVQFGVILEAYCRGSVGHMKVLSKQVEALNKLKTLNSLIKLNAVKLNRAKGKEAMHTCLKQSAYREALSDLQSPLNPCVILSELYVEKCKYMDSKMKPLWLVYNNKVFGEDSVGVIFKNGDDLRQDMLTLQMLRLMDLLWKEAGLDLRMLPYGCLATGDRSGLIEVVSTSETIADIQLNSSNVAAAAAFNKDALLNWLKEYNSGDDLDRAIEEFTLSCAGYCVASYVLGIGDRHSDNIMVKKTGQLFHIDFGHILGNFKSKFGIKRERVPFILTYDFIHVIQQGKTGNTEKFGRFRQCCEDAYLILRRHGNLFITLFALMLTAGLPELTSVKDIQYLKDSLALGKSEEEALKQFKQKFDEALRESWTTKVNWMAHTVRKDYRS
Sequence of Voltage-gated inwardly rectifying potassium channel KCNH2 (Q12809 whole entry): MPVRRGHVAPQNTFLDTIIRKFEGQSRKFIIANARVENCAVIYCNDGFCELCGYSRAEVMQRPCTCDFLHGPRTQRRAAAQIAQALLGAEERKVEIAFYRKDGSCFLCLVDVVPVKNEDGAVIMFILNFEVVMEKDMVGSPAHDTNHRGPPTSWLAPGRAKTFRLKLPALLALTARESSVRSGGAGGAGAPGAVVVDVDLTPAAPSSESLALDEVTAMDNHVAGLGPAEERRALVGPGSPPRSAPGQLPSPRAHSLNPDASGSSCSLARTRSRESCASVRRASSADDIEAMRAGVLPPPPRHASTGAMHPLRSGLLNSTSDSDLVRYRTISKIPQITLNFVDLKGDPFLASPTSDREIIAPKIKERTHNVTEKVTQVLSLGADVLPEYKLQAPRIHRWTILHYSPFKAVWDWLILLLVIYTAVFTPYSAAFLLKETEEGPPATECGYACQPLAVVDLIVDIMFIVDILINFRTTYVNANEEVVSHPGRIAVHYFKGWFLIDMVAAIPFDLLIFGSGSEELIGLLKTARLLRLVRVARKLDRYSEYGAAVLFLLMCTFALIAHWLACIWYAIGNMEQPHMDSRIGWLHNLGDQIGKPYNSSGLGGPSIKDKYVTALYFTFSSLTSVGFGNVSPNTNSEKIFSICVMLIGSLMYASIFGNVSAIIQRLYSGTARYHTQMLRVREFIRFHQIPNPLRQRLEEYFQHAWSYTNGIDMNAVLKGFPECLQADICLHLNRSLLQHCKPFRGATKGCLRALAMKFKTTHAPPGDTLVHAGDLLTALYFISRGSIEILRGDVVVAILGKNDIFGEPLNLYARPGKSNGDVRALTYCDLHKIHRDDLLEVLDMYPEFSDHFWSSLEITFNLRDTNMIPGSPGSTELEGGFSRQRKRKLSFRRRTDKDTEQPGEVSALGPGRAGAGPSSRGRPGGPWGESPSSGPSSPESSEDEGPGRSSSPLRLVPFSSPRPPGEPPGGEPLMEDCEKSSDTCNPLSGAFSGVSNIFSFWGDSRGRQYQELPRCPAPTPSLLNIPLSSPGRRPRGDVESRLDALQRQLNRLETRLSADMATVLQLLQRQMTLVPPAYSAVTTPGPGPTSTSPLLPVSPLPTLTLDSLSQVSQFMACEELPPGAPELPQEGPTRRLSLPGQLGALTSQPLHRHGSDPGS

COCCOCCNC(=O)CCCC#Cc1cccc2nc(Cn3nc(-c4cccc(O)c4)c4c(N)ncnc43)n(Cc3ccccc3Cl)c(=O)c12
IC50 [1]: 1.1 nM
IC50 [2]: 3 to 12 nM
IC50 [3]: 47 nM
IC50 [4]: 1490 nM

CC[C@H](Nc1nc(N)nc(N)c1C#N)c1nc2cccc(C#CCCCC(=O)N3CCOCC3)c2c(=O)n1-c1ccccc1
IC50 [5]: 1600 nM
IC50 [6]: 2400 nM
IC50 [7]: 509 nM
IC50 [8]: 1900 nM
inhibition at 40 µM [9]: 34.1%
inhibition [10]: Dose-dependent effect
half-life [11]: 1.28 h
AUC(0-t) [12]: 1050 ng·h/mL
IC50 [13]: 5600 nM
IC50 [14]: 591 nM
IC50 [15]: 2000 nM
AUC [16]: 1057 ng·h/mL
inhibition [17]: Active
AUC(0-inf) [18]: 958 ng·h/mL
IC50 [19]: 7.6 nM
IC50 [20]: 91.9 nM
bioavailability [21]: 29.7%
AUC(0-t) [22]: 938 ng·h/mL
half-life [23]: 1.46 h
inhibition [24]: Dose-dependent effect
inhibition [25]: Dose-dependent effect
IC50 [26]: 5700 nM
IC50 [27]: 3300 nM
IC50 [28]: 3.82 nM
IC50 [29]: > 40000 nM
IC50 [30]: 4900 nM
Vd [31]: 0.545 L/kg
inhibition [32]: Dose-dependent effect
IC50 [33]: 1400 nM
